The target in this assay is Dipeptidyl peptidase 4 (Homo sapiens, UniProt P27487). Kind of assay: Dipeptidyl Peptidase Inhibition Assay. The following applies: pH 7.5; 37 °C.

The structures appear in SMILES notation.

Sequence of Dipeptidyl peptidase 4 (P27487 whole entry): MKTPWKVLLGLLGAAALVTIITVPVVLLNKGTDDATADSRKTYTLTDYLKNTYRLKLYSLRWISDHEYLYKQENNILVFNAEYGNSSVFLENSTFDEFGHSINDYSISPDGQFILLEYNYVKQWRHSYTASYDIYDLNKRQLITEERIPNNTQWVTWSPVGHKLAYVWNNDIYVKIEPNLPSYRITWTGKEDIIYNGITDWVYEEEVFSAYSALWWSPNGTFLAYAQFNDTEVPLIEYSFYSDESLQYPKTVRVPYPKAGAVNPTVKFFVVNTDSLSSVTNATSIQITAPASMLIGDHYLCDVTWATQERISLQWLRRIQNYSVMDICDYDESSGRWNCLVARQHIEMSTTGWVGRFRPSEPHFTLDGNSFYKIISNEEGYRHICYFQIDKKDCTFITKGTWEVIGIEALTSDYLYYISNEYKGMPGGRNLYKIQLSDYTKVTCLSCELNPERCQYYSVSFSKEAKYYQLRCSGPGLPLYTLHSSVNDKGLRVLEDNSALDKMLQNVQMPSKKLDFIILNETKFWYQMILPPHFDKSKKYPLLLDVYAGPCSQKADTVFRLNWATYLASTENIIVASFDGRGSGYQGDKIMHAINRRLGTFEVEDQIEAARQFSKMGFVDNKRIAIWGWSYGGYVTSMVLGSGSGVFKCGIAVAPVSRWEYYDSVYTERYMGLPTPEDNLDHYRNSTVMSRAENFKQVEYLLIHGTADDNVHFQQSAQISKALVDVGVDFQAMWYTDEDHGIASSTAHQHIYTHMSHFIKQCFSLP

What is called IC50 is the concentration needed to halve the response being measured. A low value points to higher potency. `CC(C)[C@H](Oc1ccc(CNC(=O)[C@@H]2CCCN2C(=O)C[C@H](N)Cc2c(F)c(F)c(F)c(F)c2F)cc1)C(=O)O` [(2S)-2-[4-({[(2S)-1-[(3R)-3-amino-4-(2,3,4,5,6-pentafluorophenyl)butanoyl]pyrrolidin-2-yl]formamido}methyl)phenoxy]-3-methylbutanoic acid] displayed an IC50 of 8 nM.

Turning to `C[C@H](C(=O)N1CCOCC1)[C@@H](C(=O)N(C)C)c1ccc(-c2ccc(F)cc2)cc1` [(2R,3S)-2-[4-(4-fluorophenyl)phenyl]-N,N,3-trimethyl-4-(morpholin-4-yl)-4-oxobutanamide], 520 nM corresponded to half-maximal inhibition (IC50).

The values are drawn from BindingDB's records for doi:10.1016/j.bmcl.2007.02.040 (Merck Research Laboratories, 2007).
